Key:
MPO = MPO (Homo sapiens, UniProt P05164); test: Oxidation of β2-agonists by MPO/H2O2, spectrophotometric ΔA315; format: biochemical; set-up: Myeloperoxidase (MPO) from human leucocytes (lyophilized powder); purchased Axxora, LLC (San Diego, Calif.); host or cells: human leucocytes (natural source); details: 200 mU/mL MPO
Method: (§1) Spectrophotometric Measurements. Spectra are measured using an Agilent diode array spectrophotometer model 8453 (Agilent Technologies, Inc., Santa Clara, Calif.). Oxidation of β2-agonists is studied by measuring absorption spectra at designated time points following reaction starts. Samples are prepared in 50 mM acetate buffer (pH 5.0), 50 and 100 mM phosphate buffers (pH 7.0 and 8.0) and 100 mM Tris/HCl (pH 9.19). All buffers contain DTPA (100 and 200 μM) and measurements are performed at an ambient temperature of 20° C. The reaction is started by the addition of a small aliquot of H2O2 (2, 5 or 10 μL), or glucose oxidase (1 μL), if glucose/glucose oxidase was used to generate H2O2, to a sample containing a studied compound, peroxidase and, if required, an inhibiting co-factor. Time course measurements are carried out following changes in absorbance at 315 nm in 15 second intervals versus absorbance at 800 nm, where none of the compounds absorb. The 315 nm wavelength is chosen because β2-agonists' oxidation products absorb intensely near 315 nm, and because it is close to the absorption maximum of tyrosine dimers.
The concentration of AscH^− in airway fluid was estimated to be near 100 μM (Id.), so we use concentrations within this physiological range. […] AscH^− affects oxidation of salbutamol and fenoterol similarly, causing delay in the net oxidation of both drugs. A315 increases after a lag period, the duration of which depends on AscH^− concentration. Net oxidation of the drugs occurs only when AscH^− is consumed. […] This is understandable given that the concentration of H2O2 was only 50 μM and the peroxide was used to oxidize both the drugs and AscH^−. […] The proposed mechanisms of inhibition are reactions A and B, shown below, which reveal that recovery of the drug occurs at the expense of AscH^−, which is oxidized to the ascorbate radical (A^•−).
[…]. The extent of oxidation is expressed as ΔA315±SE versus control (in %) during 22 minutes of reaction at 20° C. Values are the mean of at least duplicate determinations.

LPO [1] = molecular target: T1, LPO (Bos taurus, UniProt P80025); test: Oxidation of β2-agonists by LPO/H2O2 (glucose/glucose oxidase), spectrophotometric ΔA315; format: biochemical, bovine; details: 1 mM glucose/0.2 μg/mL glucose oxidase, pH 7.0, 30 min, % of control; for Amount of metabolite formed ΔA315 (%) Fenoterol: 50 μM fenoterol, 158 nM LPO; for Amount of metabolite formed ΔA315 (%) Salbutamol: 100 μM salbutamol, 216 nM LPO
T1 construct: Lactoperoxidase (LPO) from bovine milk (EC 1.11.1.7); purchased Sigma-Aldrich Co. (St. Louis, Mo.); host or cells: bovine milk (natural source)
Method: as §1
In certain experiments, oxidation of β2-agonists by peroxidases is carried out using H2O2 generated by the reaction of glucose (1 mM) with glucose oxidase (0.2 μg/mL). The rate of H2O2 generation in these systems was estimated based on the rate of oxidation of ABTS (1 mM) to the green ABTS radical cation (ABTS^•+) by HRP, at increasing concentrations of the enzyme. Concentrations of glucose and glucose oxidase are the same as those used in experiments with β2-agonists. The plot of the rate of ABTS^•+ oxidation at 420 nm (determined from the linear portion of kinetic runs) versus [HRP] is a curve, which plateaus above a certain threshold value [HRP]. The mean value of the rate from the plateau region (dA420/dt=ε420×d[ABTS^•+]/dt) is taken as the rate at which all H2O2 produced glucose/glucose was immediately used up by the enzyme to oxidize ABTS. Calculations are performed using […] (ABTS^•+ of 3.6×10^4 M^−1 cm^−1) (Childs et al. (1975) Biochem. […].
H2O2 is generated by 1 mM glucose and 0.2 μg/mL glucose oxidase. Oxidation of 50 μM fenoterol and 100 μM salbutamol is carried out in 0.1 M potassium phosphate buffer (pH 7.0) containing 0.1 mM DTPA in the presence of LPO (158 nM LPO for fenoterol and 216 nM for salbutamol). The extent of inhibition is determined by measuring ΔA315 during 30 minutes of reaction and is expressed as % of control (mean±SE from at least two determinations).

LPO [2] = molecular target: T1, LPO; test: Nitration of salbutamol by LPO/H2O2/NO2−, A410; format: biochemical, bovine
Method: Spectrophotometric Measurements. Spectra are measured using an Agilent diode array spectrophotometer model 8453 (Agilent Technologies, Inc., Santa Clara, Calif.). Nitration of salbutamol is studied by measuring absorption spectra at designated time points following the start of the reaction. Samples are prepared in 100 mM phosphate buffers (pH 7.0). All buffers contained DTPA (100 μM) or are pretreated with Chelex-100 before use, and measurements are performed at ambient temperature of 20° C. Typically, the reaction is started by the addition of a small aliquot of H2O2 or the desired peroxidase. Time course measurements are carried out following changes in absorbance at 410 nm in 30 second intervals versus absorbance at 800 nm, where none of the compounds absorb.
Ascorbate (AscH^−) is an effective natural antioxidant protecting airways from oxidative injury. Cross et al., (1994) Environ. Health Perspect. 102 (suppl. 10):185-191. Its concentration in the respiratory tract lining fluid is estimated to be near 100 μM (Id.). We examine the effect of AscH^− on nitration of 100 μM salbutamol by 67 nM LPO, 4 mM H2O2, and 3.5 mM of NaNO2 by measuring absorption at 410 nm. […] The duration of the lag period depends on AscH^− concentration. […] See, e.g., Reszka et al. (1999) Free Radic. Biol. & Med. 26:669-678.
As noted earlier, methimazole is an antithyroid drug, an effective inhibitor of LPO activity. 100 μM of salbutamol is reacted with 73 nM LPO, 3.5 mM NaNO2, and 4 mM H2O2 at pH buffer 7.0 in the presence of 0, 27, 55, and 109 μM methimazole (shown in FIG. 9, section A, traces a-d, respectively). Traces c and d also indicate by arrow when additional LPO is added to the system. […] In contrast to effects exerted by AscH^− or SCN^−, methimazole-dependent inhibition is permanent and is probably due to inactivation of the enzyme, since a second dose of LPO reactivates the process (FIG. 9, section A, trace c).
Dapsone, an anti-inflammatory and anti-leprotic agent, is a potent inhibitor of LPO and MPO. See, e.g., Kettle et al. (1991) Biochem. Pharmacol. 41(10):1485-1492; Bozeman et al. (1992) Biochem. Pharmacol. 44(2):553-563. 97 μM of salbutamol is reacted with 65 nM LPO, 3.4 mM NaNO2, and 4 mM H2O2 at pH buffer 7.0 in the presence of 0, 2.5, 5, 10, 50, and 100 μM dapsone (shown in FIG. 10, traces a-f, respectively). The arrows in traces d and e of FIG. 10 indicate where additional LPO is added to the system. […] Dapsone at 50 μM inhibited nitration by approximately 86%. Given the high concentrations of NaNO2 and H2O2 used in this system, dapsone appears to be a potent blocker of nitration.
The extent of nitration is expressed as a change in ΔA410 versus control (dapsone omitted) taken as 100% after 10, 30, and 60 minute reactions for LPO, MPO, and EPO nitrating systems, respectively. Results equal the means±SE of at least two measurements. In the LPO system, 100 μM of salbutamol, 3.4 mM of NaNO2, 4 mM of H2O2, and 65 nM of LPO is used. In the MPO system, 50 μM of salbutamol, 5.0 mM of NaNO2, 5 mM of H2O2, and 0.2 U/mL of MPO is used. In the EPO system, 50 μM of salbutamol, 5 mM of NaNO2, 2 mM of H2O2, and 0.075 U/mL of EPO is used. All reactions were carried out in pH 7.0 phosphate buffer containing DMSO (5% v/v). The term “nitrophenols” includes nitrosalbutamol (N-Sal) and salbutamol-derived nitrophenol (N—ArOH).

[3] = inhibitor 1 mM, listed as azide
[4] = inhibitor 0.1 mM, listed as thiocyanate
[5] = inhibitor 0.1 mM, listed as L-methionine

Sequence of MPO (P05164 279-745 limits assumed): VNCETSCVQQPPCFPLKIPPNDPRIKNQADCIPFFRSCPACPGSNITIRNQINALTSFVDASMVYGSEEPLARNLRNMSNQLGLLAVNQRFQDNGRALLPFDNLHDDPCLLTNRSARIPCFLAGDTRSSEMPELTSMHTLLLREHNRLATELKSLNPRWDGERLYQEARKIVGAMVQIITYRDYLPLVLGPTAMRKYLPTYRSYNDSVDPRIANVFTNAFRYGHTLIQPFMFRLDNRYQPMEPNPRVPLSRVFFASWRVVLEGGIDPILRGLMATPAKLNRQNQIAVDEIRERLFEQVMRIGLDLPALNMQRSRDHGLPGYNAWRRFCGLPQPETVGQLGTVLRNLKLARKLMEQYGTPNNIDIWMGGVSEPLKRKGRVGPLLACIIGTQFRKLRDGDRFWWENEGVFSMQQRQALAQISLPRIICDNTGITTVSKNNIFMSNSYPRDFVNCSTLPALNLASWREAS
Sequence of MPO (P05164 165-273 limits assumed): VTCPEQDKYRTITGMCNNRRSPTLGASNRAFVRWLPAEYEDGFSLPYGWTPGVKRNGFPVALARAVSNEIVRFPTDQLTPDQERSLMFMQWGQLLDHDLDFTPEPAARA

## [N-]=[N+]=[N-].[Na+] [NaN3]
MPO; 1 mM fenoterol, 50 μM H2O2, pH 7.0, 22 min, 20° C., co-factor 1 mM
  ΔA315 (%) Fenoterol, extent of oxidation versus control: 17.9 ± 4.2%
MPO; 1 mM salbutamol, 50 μM H2O2, pH 7.0, 22 min, 20° C., co-factor 1 mM
  ΔA315 (%) Salbutamol, extent of oxidation versus control: 6.6 ± 1.3%
LPO [1]; inhibitor 1 mM
  Amount of metabolite formed ΔA315 (%) Fenoterol: 45.5 ± 3.9%
  Amount of metabolite formed ΔA315 (%) Salbutamol: 17.4 ± 7.1%
LPO [1]; [3]
  Amount of metabolite formed ΔA315 (%) Fenoterol: strongly inhibited
  Amount of metabolite formed ΔA315 (%) Salbutamol: strongly inhibited

## N#C[S-].[Na+] [NaSCN]
LPO [2]; 50 μM NaSCN
  Nitration of salbutamol by LPO/H2O2/NO2− (A410 versus time): completely prevented
LPO [2]; [NaSCN] <50 μM (10, 25 μM)
  Nitration of salbutamol by LPO/H2O2/NO2− (A410 versus time): only transiently
LPO [1]; inhibitor 0.1 mM
  Amount of metabolite formed ΔA315 (%) Fenoterol: 22.8 ± 3.8%
  Amount of metabolite formed ΔA315 (%) Salbutamol: 5.5 ± 7.3%
LPO [1]; [4]
  Amount of metabolite formed ΔA315 (%) Fenoterol: markedly inhibit
  Amount of metabolite formed ΔA315 (%) Salbutamol: markedly inhibit

## CSCC[C@H](N)C(=O)O [Methionine, L-methionine]
LPO [1]; inhibitor 0.1 mM
  Amount of metabolite formed ΔA315 (%) Fenoterol: 103.7 ± 2.0%
  Amount of metabolite formed ΔA315 (%) Salbutamol: 105.5 ± 16.2%
LPO [1]; [5]
  Amount of metabolite formed ΔA315 (%) Fenoterol: inactive
  Amount of metabolite formed ΔA315 (%) Salbutamol: inactive
LPO [1]; inhibitor 2 mM
  Amount of metabolite formed ΔA315 (%) Fenoterol: 95.0 ± 3.5%

## N[C@@H](CCC(=O)N[C@@H](CS)C(=O)NCC(=O)O)C(=O)O [GSH, glutathione]
MPO; 100 μM fenoterol, 50 μM H2O2, pH 7.0, 30 min, co-factor 0.1 mM
  ΔA315 (%) Fenoterol, extent of oxidation versus control: 43.3 ± 14.5%
MPO; 100 μM salbutamol, 50 μM H2O2, pH 7.0, 30 min, co-factor 0.1 mM
  ΔA315 (%) Salbutamol, extent of oxidation versus control: 62.0 ± 17.3%

B1: Catalase: catalase from bovine liver (EC 1.11.1.6; 2,350 U/mg) (protein, UniProt P00432 2-527, looked up)
Catalase: ADNRDPASDQMKHWKEQRAAQKPDVLTTGGGNPVGDKLNSLTVGPRGPLLVQDVVFTDEMAHFDRERIPERVVHAKGAGAFGYFEVTHDITRYSKAKVFEHIGKRTPIAVRFSTVAGESGSADTVRDPRGFAVKFYTEDGNWDLVGNNTPIFFIRDALLFPSFIHSQKRNPQTHLKDPDMVWDFWSLRPESLHQVSFLFSDRGIPDGHRHMNGYGSHTFKLVNANGEAVYCKFHYKTDQGIKNLSVEDAARLAHEDPDYGLRDLFNAIATGNYPSWTLYIQVMTFSEAEIFPFNPFDLTKVWPHGDYPLIPVGKLVLNRNPVNYFAEVEQLAFDPSNMPPGIEPSPDKMLQGRLFAYPDTHRHRLGPNYLQIPVNCPYRARVANYQRDGPMCMMDNQGGAPNYYPNSFSAPEHQPSALEHRTHFSGDVQRFNSANDDNVTQVRTFYLKVLNEEQRKRLCENIAGHLKDAQLFIQKKAVKNFSDVHPEYGSRIQALLDKYNEEKPKNAVHTYVQHGSHLSAREKANL
MPO; 1 mM fenoterol, 50 μM H2O2, pH 7.0, 22 min, 20° C., co-factor 235 U/mL
  ΔA315 (%) Fenoterol, extent of oxidation versus control: 0.0%
MPO; 1 mM salbutamol, 50 μM H2O2, pH 7.0, 22 min, 20° C., co-factor 235 U/mL
  ΔA315 (%) Salbutamol, extent of oxidation versus control: 0.0%
